Source: patent US10774046B2, “Inhibitors for the treatment of cancer and related methods” (UNIVERSITY OF LOUISVILLE RESEARCH FOUNDATION, INC., priority 2017, dated 2020)

Columns and labels:
LLC xenografts = assay: Ki67 immunohistochemistry of tumors; assay type: in vivo, C57BL/6 mice; conditions: 120 mg/kg by gavage daily, ten days
Protocol: Formalin-fixed, paraffin-embedded tissue sections were processed as previously described then incubated with anti-Ki-67 primary antibody (Abcam) overnight, followed by HRP-linked goat anti-rabbit secondary antibody (1:300, Pierce). Sections were developed with 3,3′-diaminobenzidine tetrahydrochloride, counterstained, scanned and analyzed with the positive pixel count algorithm as previously described. Data are depicted as % positive pixels/total pixels±SD.

H460 cells [1] = assay: proliferation, viable cell count by trypan blue exclusion; assay type: cell-based, human
Protocol: Cells were incubated in 20% trypan blue (Sigma) for 5 minutes. Cells excluding trypan blue were counted using a standard hemocytometer (Hausser Scientific) to determine total numbers of viable cells. Data are expressed as mean±SD of three experiments.
H460 non-small cell lung cancer cells were plated in 24 well plates and exposed to increasing concentrations of the indicated inhibitors of Formula IV (FBR1-02 corresponds to
DMSO was used as vehicle. After 24, 48 and 72 hours of exposure, cells were detached and viable cells were counted by Trypan blue exclusion (representative counts at 48 hours shown).
Method: H460 cells were plated in 24 well plates and exposed to increasing concentrations of FB4-31 to FB4-36 and 5MPN. DMSO was used as a vehicle. After 24, 48 and 72 hours of exposure, cells were detached, and viable cells were counted by Trypan blue exclusion (representative counts at 72 hours shown).

H460 cells [2] = assay: apoptosis by flow cytometry (annexin V / propidium iodide); assay type: cell-based, human; conditions: H460, 10 μM 5MPN
Protocol: To measure apoptosis, cells were stained with annexin V and propidium iodide and examined as previously described. For example, H460 cells were exposed to increasing concentrations of the PFKFB4 inhibitor (MPN-2), the PFKFB3 inhibitor PFK15 (Tocris) or both and viable cells were counted at 24, 48 and 72 hours. DMSO used as vehicle. For cell cycle experiments, cells were detached, washed with cold PBS and fixed in 70% ethanol (4° C., 30 minutes). The cells then were pelleted by centrifugation, resuspended in PBS containing PI and RNase A, incubated at 37° C. in the dark for 30 minutes and analyzed by flow cytometry (BD FACSCalibur). Data were analyzed using FlowJo software (TREE STAR Inc.). Results were calculated as the mean±SD of three experiments. The effects (Fa values) of the series of concentrations of MPN-2 and PFK-15 were examined individually and in combination at a constant ratio of 1:1.

PFK-1 = PFK-1 kinase activity; assay type: biochemical; conditions: 10 μM
LLC tumors = assay: tumor glucose uptake by FDG micro-PET; assay type: in vivo, C57BL/6 mice
Protocol: At the end of the experiment, animals were euthanized, tumors removed and sections fixed in 10% formaldehyde for immunohistochemistry or snap-frozen in liquid nitrogen for analyses. Subsets of tumor-bearing mice (n=3) were injected i.p. with 2-[^18F]-fluoro-2-deoxyglucose (FDG, 150 μCi, 100 μl) and imaged by micro-positron emission tomography as previously described. Regions of interest in the tumors and cerebellum were quantified in quadruplicate and expressed as the mean±SD of the tumor:cerebellar FDG uptake ratio. Animal experiments were approved by the University of Louisville Institutional Animal Care and Use Committee.
Method: FDG-PET was conducted on tumor-bearing mice to determine acute effects of Formula (VIII) on glucose uptake. C57BL/6 mice (Charles River) with subcutaneous Lewis lung carcinoma tumors were injected intraperitoneally with 100 μCi of ^18F-fluoro-2-deoxy-glucose under isoflurane anesthesia and subjected to a 15-minute static scan 45 minutes after tracer injection at baseline. […] Tumor/cerebellum ROI (regions of interest) were quantified, representative sagittal cuts from mice are shown with arrows showing the tumors on the animals. (* signifies statistical significance).

human recombinant PFKFB4 = human recombinant PFKFB4 (Homo sapiens, UniProt Q16877); assay: ADP-Glo kinase assay; assay type: biochemical
Chain of human recombinant PFKFB4 (Q16877 whole entry): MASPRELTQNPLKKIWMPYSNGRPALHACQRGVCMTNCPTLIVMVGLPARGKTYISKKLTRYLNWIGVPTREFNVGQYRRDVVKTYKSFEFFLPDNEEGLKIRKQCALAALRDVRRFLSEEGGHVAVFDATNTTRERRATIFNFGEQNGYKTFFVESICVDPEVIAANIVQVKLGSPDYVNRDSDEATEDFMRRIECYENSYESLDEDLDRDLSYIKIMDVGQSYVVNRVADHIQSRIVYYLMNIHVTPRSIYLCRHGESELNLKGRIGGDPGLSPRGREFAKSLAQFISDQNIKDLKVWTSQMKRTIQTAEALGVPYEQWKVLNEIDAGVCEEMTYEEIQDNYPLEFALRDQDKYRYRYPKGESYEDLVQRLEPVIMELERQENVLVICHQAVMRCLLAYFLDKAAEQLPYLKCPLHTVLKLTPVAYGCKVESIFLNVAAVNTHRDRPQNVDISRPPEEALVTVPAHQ
Protocol: The fructose-6-phosphate kinase activity of human recombinant PFKFB4 in the presence of DMSO±indicated 5MPN concentrations was assayed as previously described. The activity of 5MPN against 97 kinases was examined using a commercially available active-site dependent competition binding assay core service (KINOMEscanEDGE) that quantifies the capacity of test agents to compete with an immobilized, active-site directed ligand using a DNA-tagged kinase and immobilized ligand and compound. For example, enzyme inhibition was studied using an ADP-Glo assay. The effect of MPN-2 on the activity of recombinant human PFKFB4 enzyme was examined in an ADP-Glo assay (Promega), which measures ADP formed from a kinase reaction. ADP is converted into ATP, which is converted into light by a luciferase. PFKFB4 protein was exposed to MPN-2 at indicated concentrations in the presence of ATP and fructose-6-phosphate and following manufacturer's instructions, ADP-Glo and kinase detections reagents were added. The data are shown as the decrease in luminescence caused by MPN-2 relative to DMSO.
Method: The efficacy of Formula (VIII) in inhibition of the kinase activity of the PFKFB4 enzyme was examined by exposing recombinant human PFKFB4 protein to Formula (VIII) in the ADP-Glo kinase assay (Promega) which measures ADP formed through a kinase reaction. Briefly, recombinant protein, ATP, substrate and Formula (VIII) were incubated together for the kinase reaction followed by the addition of ADP-Glo reagent, used to terminate the kinase reaction. Lastly, a kinase detection reagent was added to convert the newly formed ADP to ATP which was measured by a luciferase reaction. Data are shown in FIG. 10 as the decrease in luminescence caused by Formula (VIII) relative to DMSO.
Method: The efficacy of FB4-32 and FB4-35 in inhibition of the kinase activity of the PFKFB4 enzyme was examined by exposing recombinant human PFKFB4 protein to FB4-32 and FB4-35 in the ADP-Glo kinase assay (Promega) which measures ADP formed through a kinase reaction. Briefly, recombinant protein, ATP, substrate and FB4-32 or FB4-35 were incubated together for the kinase reaction followed by the addition of ADP-Glo reagent to terminate the kinase reaction. Last, a kinase detection reagent was added to convert the newly formed ADP to ATP which was measured by a luciferase reaction. Data are shown as the decrease in luminescence caused by FB4-32 and FB4-35 relative to DMSO.

[3] = oral and intravenous pharmacokinetic properties; assay type: in vivo; conditions: CD-1 mice (N=3)
human cancer cell lines = assay: proliferation, viable cell count by trypan blue exclusion; assay type: cell-based; conditions: counts at 48 hours shown
Protocol: Method: Cells were plated in 24 well plates and exposed to increasing concentrations of Formula (VIII). DMSO was used as a vehicle. After 24, 48 and 72 hours of exposure, cells were detached, and viable cells were counted by Trypan blue exclusion (representative counts at 48 hours shown).

Row | Molecule | Ki67-positive cells (LLC xenografts) | cell proliferation (H460 cells [1]; H460, 24-72 hours) | growth (H460 cells [1]; H460, over 48 hours) | effect of overexpression of PFKFB4 on anti-proliferative effect (H460 cells [1]; H460 transfected with PFKFB4, 10 μM 5MPN, 24 hours) | apoptotic cells (H460 cells [2]) | inhibition of kinase activity (PFK-1) | 2-[18F]-fluoro-2-deoxyglucose uptake (LLC tumors; 5MPN 120 mg/kg by gavage, once) | kinase activity of the PFKFB4 enzyme (luminescence relative to DMSO) (human recombinant PFKFB4) | intravenous bioavailability [3] | oral bioavailability [3] | proliferation (cell counts relative to DMSO) (human cancer cell lines) | tumor FDG uptake (LLC tumors; 40 mg/kg PO x1, PET after 60 minutes)
1 | COc1cccc2c(NCCCCCO[N+](=O)[O-])ccnc12 [5MPN, 5-[(8-methoxyquinolin-4-yl)amino]pentyl nitrate] | reduction in Ki67-positive cells | reduction in cell proliferation | dose-dependent reduction in growth | protected | increase in apoptotic cells | did not inhibit | reduction | – | – | – | – | –
2 | 5-[(8-methoxy-2-methylquinolin-1-ium-4-yl)amino]pentyl nitrate [MPN-2] | – | – | – | – | – | – | – | inhibited | exhibits intravenous bioavailability | has oral bioavailability | – | –
3 | COc1cccc2c(NCCCCCNC(=O)C(F)(F)F)ccnc12 [Formula (VIII), 2,2,2-trifluoro-N-(5-((8-methoxyquinolin-4-yl)amino)pentyl)acetamide] | – | – | – | – | – | – | – | inhibited | – | – | decreases the proliferation of human cancer cell lines in vitro with higher potency than 5MPN | decrease in tumor FDG uptake compared with vehicle
